Test system: LLC-PK1 cells
Assay: Intracellular accumulation in pig kidney epithelial cells
Type: in vitro ADME
Conditions: LLC-PK1, 10 μg/mL
Protocol: LLC-PKI cells in 6 cm^2 plastic tissue culture dishes were incubated with 10 μg/mL of the different macrolides. Cells and medium were harvested as described above at 30, 75 and 120 min.
All the supernatant and cell samples were transported frozen (at approximately −20° C.) to York Bioanalytical Solutions (York, England) for analysis. Briefly, 0.25 g of buffer (RPMI medium containing 10% FCS) was weighed into a polypropylene tube. A 50 μL volume of the appropriate working solution was added to the quality control (QC) samples. Methanol (50 μL) was added to each blank sample used for preparation of calibration standards, recovery samples and reagent blanks. A 2.5 mL volume of 0.1 M phosphate buffer was added to each sample, vortex mixed for approximately 1 min and then centrifuged at 3220×g for 10 min at 4° C.
For the liquid-liquid clean-up phase, an aliquot (100 μL) of the supernatant was transferred to a polypropylene tube. The pH was adjusted to pH 8-8.5 by the addition of 0.1 M NaOH, and vortex mixed. Ethyl acetate (5 mL) was added and after capping, the whole mixture was shaken for 10 min and then centrifuged at 3220×g for 10 min at 4° C.
Ammonium acetate (20 mM; pH native)—formic acid, 1000:3, v/v (100 μL) was added to each well in a 2 mL polypropylene collection plate. An aliquot of the ethyl acetate mixture (100 μL) was transferred to the polypropylene collection plate and evaporated under nitrogen (40° C.) until the ethyl acetate was fully evaporated whilst the ammonium acetate remained. Methanol (100 μL) was added to each well, excluding the calibration standards.
To each well containing a calibration standard, 100 μL of the appropriate calibration working solution was added. Samples were then vortex mixed for at least 10 min and submitted for liquid chromatography with tandem mass spectrometric analysis. The method stated was applicable to the samples of media (and the calibration standards and quality control samples).
For the cells, the sample tubes were weighed, and 100 μL of acetonitrile was added. The samples were vortex mixed for 10 sec, then centrifuged at 10285×g at 4° C. for 5 min. The sample was transferred to a polypropylene tube. The original sample tube was washed with 0.1 M phosphate buffer (1 mL). This was transferred to the polypropylene tube. A second wash of 1 mL was made, then a final wash of 0.5 mL. The polypropylene tube was now at the same stage as the end of the liquid extraction, but with the cells present rather than media. This was then taken through the sample preparation as described above. The original sample tubes were allowed to dry (i.e. any remaining solvent evaporated off) and were then reweighed to determine the weight of cells in the sample, to allow the concentration per gram of cells to be determined.

CCC1OC(=O)CC(OC(C)=O)C(C)C(OC2OC(C)C(OC3CC(C)(O)C(OC(=O)CC(C)C)C(C)O3)C(N(C)C)C2O)C(CC=O)CC(C)C(=O)C=CC(C)=CC1COC1OC(C)C(O)C(OC)C1OC (centres unmarked) [tylvalosin, 3-O acetyl-4″-O-isovaleryltylosin]
average intracellular concentration (75 min): 53.95 μg/mg cells | intracellular:extracellular ratio (120 min): 8.9

Reference: US9649324B2, “Use of tylvalosin as antiviral agent” (ECO ANIMAL HEALTH LIMITED, priority 2006, dated 2017)
